Measurements from patent US20020137030A1, “METHOD OF DETECTION OF NEOPLASTIC CELLS” (JOHN HOPKINS UNIVERSITY SCHOOL OF MEDICINE, priority 1995, published 2002).
Entries after “also recorded” stand apart in the source; their conditions may differ.

Columns and labels:
Assay type in all cases: cell-based, human
p16 [1] = experiment: Re-expression of p16 (RT-PCR) after 5-deoxyazacytidine in methylated lung and head and neck cancer cell lines
Procedure: (§1) Total RNA was extracted from cell lines by the guanidium-isothiocyanate-phenol-chloroform method (Chomczynski, P. & Sacchi, N., Analyt. Biochem, 162:156-159, 1987). Total RNA […] or poly-A (0.5 mg) was reverse transcribed by using Superscript II RNaseH^− (Gibco-BRL) reverse transcriptase (200 units) in the presence of hexamers (Pharmacia) and dNTP (Gibco-BRL). The cDNA was then amplified by PCR using the forward primer for exon 1 and the reverse primer for exons 2 or 3 (Kamb, et al., Science 264:436-440, 1994; and Serrano, et al., Nature 366:704-707, 1993) of p16 yielding a 428 or […] fragment respectively, which was run on 1.5% agarose gel. As a control, the […] fragment of p53 was amplified simultaneously. All reactions were repeated at least once. p16 primer sequence were as follows:
(§2) In the methylation studies, the cDNA was then amplified by PCR using the forward primer for exon 1 and the reverse primer for exons 2 or 3 of CDKN2/p16 yielding a 428 or […] fragment respectively, which was run on 1.5% agarose gel. As a control, the […] fragment of p53 (or β-actin) was amplified simultaneously. All reactions were repeated at least once.
(§3) Cells were grown in RPMI 1640 with 5-10% fetal calf serum depending on the growth requirements of each line. To assess re-expression, 5-deoxyazacytidine was supplemented to the medium at concentrations of […], and cells were harvested after three and five days.
(§4) In order to test the hypothesis that 5′ CpG island methylation of p16 indeed blocks gene expression, five methylated cell lines (3 NSCLC and 2 HNSCC) were subjected for 3-5 days to different dosages (0.3-1 mmol) of the demethylating agent 5-deoxyazacytidine.

5′ CpG island of p16 = experiment: Southern blot of 5′ CpG island methylation of p16 after 5-deoxyazacytidine
Procedure: Southern blots were performed as described (de Bustros, et al., Proc. Natl. Acad. Sci. U.S.A., 85:5693-5697, 1988). Briefly, […] of genomic DNA were digested with of EcoRI (10 U/mg) alone or in combination with the methylation-sensitive enzymes SmaI, EagI or SacII (15 U/mg each) for 16 h as specified by the manufacturers (Gibco-BRL and New England Biolabs), run on a 1% agarose gel, transferred to a Zeta-Probe GT nylon membrane (Bio-Rad), and probed with 25 ng of the 0.35 kb and 0.5 kb PCR products of exons 1 and 2 of p16 after random primer labelling (Feinberg, A. P. & Vogelstein, B. A, Annal. Biochem. 137:266-267, 1984). The primer sequences for the PE1 probe are as follows: sense 5′ GAAGAAAGAGGAGGGGCTG (SEQ ID NO:20), and antisense 5′ […] (SEQ ID NO:21), amplified with an annealing temperature of 60° C. by adding 3.6% formamide to the PCR buffer. The c-abl probe was provided by J.-P. Issa. The blots were then exposed in a phosphorimager (MolecularDynamics). All cases with a partial methylation pattern were repeated to exclude imcomplete enzymatic activity.
as §3, §4

p16 [2] = experiment: Re-expression of p16 mRNA (RT-PCR) after 5-deoxyazacytidine in colon cancer cell lines RKO and SW480; conditions: 3 days
Procedure: as §1
as §2, with “once. […]” for “once.”
In contrast, normal breast and 3 of 4 tested colon mucosa samples had readily detectable p16 message. […]

cancer cell lines = experiment: Effects on cell growth, morphology and viability of cancer cell lines; conditions: non-specific; also seen in lines with homozygous deletions of p16, independent of methylation status
Procedure: as §3
However, these effects were non-specific and observed in cell lines with homozygous deletions of p16, and with retention of p16 alleles independent of methylation status. Therefore, we cannot attribute these non-specific effects to re-expression of p16, since other genes might also be affected by azacytidine.

Structure (SMILES): Nc1ncn([C@H]2C[C@H](O)[C@@H](CO)O2)c(=O)n1 [5-deoxyazacytidine]
- re-expression of p16 message by RT-PCR (p16 [1]; five methylated cell lines (3 NSCLC and 2 HNSCC), 0.3-1 mmol, 3-5 days, each dose and time tested): re-expressed the message of p16
- re-expression of p16 (FIG. 5b) (p16 [1]; methylated HNSCC cell lines (lanes 4 and 6)): re-express p16
- reexpression of p16 message on reversal of methylation (p16 [1]; methylated cell lines, summary statement): reexpression of p16 message
- re-expression of p16, 428 bp RT-PCR product (FIG. 5d) (p16 [1]; transcriptionally silenced lines U1752 and H157, all doses and times): re-express p16
- demethylation of p16 5′ CpG island, EcoRI and SmaI Southern (FIG. 5c) (5′ CpG island of p16; line H157): Partial demethylation
- demethylation of p16 5′ CpG island, EcoRI and SmaI Southern (FIG. 5c) (5′ CpG island of p16; line H 1752, 1 and 0.5 mmol, 3 days and 5 days, all dosages and time points): demethylation was seen
- demethylation of the monitored CpG sites (5′ CpG island of p16; methylated cell lines, associated with reversal of the transcriptional block of p16): partial demethylation
- p16 mRNA by RT-PCR after treatment (p16 [2]): p16 gene mRNA was seen; also recorded: detectable p16 mRNA
- effects on cell growth, morphology, and viability (cancer cell lines): profound effects
